Reference: patent US20140186427A1, “ORODISPERSIBLE FILMS FOR THE MANUFACTURING OF INDIVIDUALISED MEDICINE OR FOR LARGE SCALE PRODUCTION” (TESA LABTEC GMBH, priority 2011, published 2014)
Structures can show the parent of a compound that is named as a salt.

What was measured:
[1] = Solubility of the API in the ink (Klucel EX, brilliant blue, ethanol); assay type: physicochemical; details: brilliant blue and ethanol
Description: The ingredients of the ink were Klucel® EX (hydroxypropylcellulose, Ashland, USA), brilliant blue and ethanol.

[2] = Recrystallisation after printing: polarised microscopy and X-ray diffraction; assay type: physicochemical; details: printed ODF
Description: X-ray diffractograms were collected for the drug-free film, the APIs and the ODFs after the fourth printing process using […], Netherland). Polarised micrographs and scanning electron micrographs were collected for the drug-free film and the ODFs after the fourth printing process using a DMLB microscope (Leica Microsystems, Cambridge, UK) and a LEO 1430 VP (Leo Elektron Microscopy, Cambridge, UK).

| Compound | Solubility in the ink [1] | Recrystallisation / crystals after the printing process [2] |
| --- | --- | --- |
| CN1CC(=O)N2[C@H](c3ccc4c(c3)OCO4)c3[nH]c4ccccc4c3C[C@@H]2C1=O [Tadalafil] | forms an ink-suspension |  |
| C#CCN[C@@H]1CCc2ccccc21 [Rasagiline mesylate] | soluble in the ink | did not recrystallise |
